Here are results for one substance from patent US20100273876A1, “ANTIBACTERIAL FORMULATION COMPRISING A DIALKYL SULPHOSUCCINATE AND A CARBANILIDE ANTIBACTERIAL AGENT” (priority 2007, published 2010).

In assay [1] the test system is C. striatum NCTC 764. In words: MBC assay. The assay is classed as cell-based, Corynebacterium striatum. How it is done:
Several Corynebacterium test species were also used in this study, namely C. mucifaciens ATCC 700355, C. striatum NCTC 764, C. xerosis NCTC 11861 and C. jeikeium NCTC 11915. These Gram-positive pathogens are closely related to organisms (aerobic diphtheroids of the genus Corynebacterium) that cause body odour. C. mucifaciens and C. striatum were cultured and maintained on Mueller-Hinton Medium (agar and broth) and were incubated aerobically at 37° C. for 24 hours. C. xerosis and C. jeikeium were cultured and maintained on Mueller-Hinton Medium containing 5% (v/v) lysed horse blood (agar and broth) and were incubated aerobically at 37° C. for 72 hours. This assay, normally carried out after an MIC assay, determines the rnininiurn concentration of a compound that is lethal to the micro-organism being tested. […] These samples were then individually sub-cultured on antibiotic-free agar medium, under the incubation conditions described above. Following incubation they were examined visually for microbial growth.

The test system of the next assay is Strep. mutans ATCC 25175. In words: Biofilm disruption assay on hydroxyapatite discs. It counts as cell-based, Streptococcus mutans. The conditions noted are these: Strep. mutans ATCC 25175 biofilm, DOSS 1.0% (w/v), CHX 0.2% (w/v). How it is done: This assay was designed to determine quantitatively the relative potency of a test compound to disrupt (effectively kill) biofilms formed by a test organism on hydroxyapatite (HA) discs.
Biofilms were formed on sterile dense ceramic HA discs 7 mm diameter x 1.8 mm thick (Clarkson Chromatography) by placing the discs in the appropriate liquid media (as described above) inoculated with the test organism (0.5×10^8 cfu/ml). The HA discs were then incubated at 37° C. for ˜48 h in a 5% CO2 atmosphere (for Strep. mutans ATCC 25175) or ˜96 h under anaerobic conditions (for Por. gingivalis 381). Following the incubation period the supernatant was removed from the wells containing the HA discs and the discs were washed×3 with fresh media to ensure all planktonic cells were removed. The HA discs were then transferred to sterile bijoux bottles containing 1 ml of phosphate buffered saline (PBS) plus test compound(s) at the required concentration. After a set time period (usually 2 and/or 5 min), the HA disc was transferred to another sterile bijoux containing 1 ml of fresh growth media. Adherent cells were then harvested by vigorous vortexing for 2 minutes. A sample was then taken, serially diluted 10-fold in fresh growth media and inoculated onto agar plates in triplicate. Untreated HA discs, and HA discs added to PBS containing only the solvents used to dissolve the test compound(s), acted as controls.
The plates were then incubated as described above and subsequently examined visually for growth. Colonies were counted at an appropriate serial dilution (5-50 individual colonies visible) with the aid of a colony counter. These measurements were then converted to numbers of colony forming units (cfu), using the formula: cfu/ml=number of colonies×serial dilution factor×100 (as only a 10 μl sample was taken).
These cfu values were then converted into log10 values and plotted graphically against time of sample removal.
At each time point, samples were assessed in triplicate; the final cfu/ml value was an average (mean) of the three readings.
Biofilm disruption assays, as described above, were carried out using DOSS as the test compound and chlorhexidine (CHX) as a positive control. For these experiments, the DOSS was tested at 0.5% w/v against Por. gingivalis and 1% w/v against Strep. mutans. The ahlorhexidine was tested at a concentration of 0.2% w/v against both micro-organisms. The DOSS was dissolved in ethanol and the chlorhexidine in distilled water. All the experiments were conducted in triplicate.

The subject of assay [2] is C. striatum NCTC 764. The experiment in a line: MIC assay, liquid medium. The assay is classed as cell-based, Corynebacterium striatum. How it is done:
Several Corynebacterium test species were also used in this study, namely C. mucifaciens ATCC 700355, C. striatum NCTC 764, C. xerosis NCTC 11861 and C. jeikeium NCTC 11915. These Gram-positive pathogens are closely related to organisms (aerobic diphtheroids of the genus Corynebacterium) that cause body odour. C. mucifaciens and C. striatum were cultured and maintained on Mueller-Hinton Medium (agar and broth) and were incubated aerobically at 37° C. for 24 hours. C. xerosis and C. jeikeium were cultured and maintained on Mueller-Hinton Medium containing 5% (v/v) lysed horse blood (agar and broth) and were incubated aerobically at 37° C. for 72 hours.
This is a standard international method for quantitatively assessing the antimicrobial activity of a compound in a liquid medium. The method used a sterile 96-well microtitre plate, capable of holding about 200 μl of liquid per well. […]
The wells were inoculated with a liquid suspension of freshly grown micro-organism and incubated under the conditions described above. […] The MIC value was recorded as the lowest concentration of test compound required to inhibit microbial growth, ie, the lowest concentration for which the liquid in the well remained clear. […]

For a further assay, the system named is P. acnes PRP-026. In words: Agar dilution MIC assay. It counts as cell-based, Propionibacterium acnes. The note with it: P. acnes PRP-026 (MLS). How it is done:
(§1) The propionibacteria were cultured and maintained on Wilkins-Chalgren Anaerobe Medium (agar and broth) at pH 6.0; all cultures were incubated anaerobically at 37° C. for 72 hours.
(§2) This is a standard international method for quantitatively assessing the antimicrobial activity of a compound in a solid medium. The test compound was prepared to 40× the highest concentration required (eg, 10 mg/ml for a final concentration of 250 μg/ml) and a series of doubling dilutions were performed in a suitable solvent. A set amount of these antimicrobial stock solutions was then added to molten agar medium (ca. 55° C.), mixed thoroughly, poured into sterile Petri dishes and allowed to cool/set.
(§3) A Multipoint™ Inoculator (AQS Manufacturing Ltd, UK) was used to inoculate the plates by spotting the inocula onto the surface of the agar, delivering approximately 1 to 2 μl per spot (yielding 10^5 CFU(colony forming units) per spot).
(§4) The plate(s) were then incubated under the conditions described above, following which they were examined visually for signs of bacterial growth. The MIC value was ascertained when there was a marked reduction in, or total loss of, growth on the test plate at the lowest concentration as compared to that of the growth on the control plate.
(§5) The assays were conducted in duplicate and included a positive control (culture medium, diluting solvent and inoculum).
(In general: In agar dilution the substance is mixed into plates at graded concentrations.)

Another assay deals with P. acnes PRP-053. The experiment in a line: Agar dilution MIC assay. It counts as cell-based, Propionibacterium acnes. The note with it: P. acnes PRP-053 (Tet/MLS). Here is the method: as §1, §2, §3, §4, §5
For another assay, the system named is P. acnes PRP-010. In words: Agar dilution MIC assay. It counts as cell-based, Propionibacterium acnes. The note with it: P. acnes PRP-010 (MLSK). How it is done:
as §1, §2, §3, §4, §5

In the next assay the test system is P. acnes PRP-004. In words: Agar dilution MIC assay. It counts as cell-based, Propionibacterium acnes. The note with it: P. acnes PRP-004 (Tet). Here is the method: as §1, §2, §3, §4, §5

The MBC is the smallest concentration meeting the test's criterion for killing. One may read the MIC as the lowest concentration that inhibits growth of the organism. Read a high MIC as a need for much substance. Turning to dioctyl sodium sulphosuccinate [DOSS], the minimum bactericidal concentration (MBC) in the assay on C. striatum NCTC 764 [1] came out at 62.5 µg/mL. Also, the MIC/MBC ratio in the assay on C. striatum NCTC 764 [1] was 1. Further, the figures for the Viable cell counts in the assay with Strep. mutans ATCC 25175 (0 min), in the assay on Strep. mutans ATCC 25175 (2 min) and in the assay on Strep. mutans ATCC 25175 (5 min) were 6.56 log10 cfu/ml, 2.87 log10 cfu/ml and 3.36 log10 cfu/ml, respectively. For the same substance, the MIC in the assay with C. striatum NCTC 764 [2] came out at 62.5 µg/mL; with P. acnes PRP-026, 15.6 µg/mL; with P. acnes PRP-053 it was 15.6 µg/mL; against P. acnes PRP-010, 15.6 µg/mL; against P. acnes PRP-004 it was 15.6 µg/mL.
